Reference: publication PMC5218480 (PLoS ONE, 2017)

Tested on: MV-4-11 cells
Assay: Gene expression microarray analysis (Affymetrix PrimeView) and GSEA
Format: cell-based, human
Set-up: RFU PODN (11730768_x_at) / Fold change /veh PODN (11730768_x_at) / RFU LINC00158 (11744669_a_at) / Fold change /veh LINC00158 (11744669_a_at) / RFU DUSP10 (11751237_a_at) / Fold change /veh DUSP10 (11751237_a_at) / RFU ID3 (11757404_x_at) / Fold change /veh ID3 (11757404_x_at) / RFU PLEKHG5 (11737974_s_at) / Fold change /veh PLEKHG5 (11737974_s_at) / RFU LRRC4B (11730491_at) / Fold change /veh LRRC4B (11730491_at) / RFU GIMAP4 (11747438_a_at) / Fold change /veh GIMAP4 (11747438_a_at) / RFU KRT8 (11758183_x_at) / Fold change /veh KRT8 (11758183_x_at) / RFU CNN1 (11734310_a_at) / Fold change /veh CNN1 (11734310_a_at) / RFU VPS37D (11726825_at) / Fold change /veh VPS37D (11726825_at) / RFU C10orf10 (11716522_x_at) / Fold change /veh C10orf10 (11716522_x_at) / RFU KIR2DL2 /// KIR2DL4 /// KIR2DL5A /// KIR2DL5B /// KIR2DS1 /// KIR2DS2 /// KIR2DS3 /// KIR2DS4 /// KIR3DL3 /// KIR3DL3 /// KIR3DS1 (11738374_at) / Fold change /veh KIR2DL2 /// KIR2DL4 /// KIR2DL5A /// KIR2DL5B /// KIR2DS1 /// KIR2DS2 /// KIR2DS3 /// KIR2DS4 /// KIR3DL3 /// KIR3DL3 /// KIR3DS1 (11738374_at) / RFU C1QL1 (11718748_at) / Fold change /veh C1QL1 (11718748_at) / RFU TMPRSS4 (11747572_a_at) / Fold change /veh TMPRSS4 (11747572_a_at) / RFU HAMP (11756126_x_at) / Fold change /veh HAMP (11756126_x_at) / RFU RNFT2 (11725882_a_at) / Fold change /veh RNFT2 (11725882_a_at) / RFU NR4A2 (11747474_a_at) / Fold change /veh NR4A2 (11747474_a_at) / RFU ABCC12 (11746883_a_at) / Fold change /veh ABCC12 (11746883_a_at) / RFU TMEM136 (11760407_x_at) / Fold change /veh TMEM136 (11760407_x_at) / RFU CLDN22 /// WWC2 (11732394_at) / Fold change /veh CLDN22 /// WWC2 (11732394_at) / RFU HLA-DPB1 (11760878_x_at) / Fold change /veh HLA-DPB1 (11760878_x_at) / RFU SPINT1 (11716480_a_at) / Fold change /veh SPINT1 (11716480_a_at) / RFU GAP43 (11754022_s_at) / Fold change /veh GAP43 (11754022_s_at) / RFU A4GNT (11735810_at) / Fold change /veh A4GNT (11735810_at) / RFU PRB3 (11715151_x_at) / Fold change /veh PRB3 (11715151_x_at) / RFU TUBB4B (11761932_at) / Fold change /veh TUBB4B (11761932_at) / RFU CAPN14 (11732068_a_at) / Fold change /veh CAPN14 (11732068_a_at) / RFU TMCC2 (11721928_a_at) / Fold change /veh TMCC2 (11721928_a_at) / RFU IRGQ (11745062_a_at) / Fold change /veh IRGQ (11745062_a_at) / RFU FAM174B (11720279_a_at) / Fold change /veh FAM174B (11720279_a_at) / RFU TMPRSS4 (11748680_a_at) / Fold change /veh TMPRSS4 (11748680_a_at) / RFU FAM212B (11763350_a_at) / Fold change /veh FAM212B (11763350_a_at) / RFU PLEKHG5 (11743358_a_at) / Fold change /veh PLEKHG5 (11743358_a_at) / RFU ZSCAN30 (11745921_a_at) / Fold change /veh ZSCAN30 (11745921_a_at) / RFU CMKLR1 (11741424_a_at) / Fold change /veh CMKLR1 (11741424_a_at) / RFU LOC101060620 /// MAPK8IP1 (11723275_at) / Fold change /veh LOC101060620 /// MAPK8IP1 (11723275_at) / RFU SPTSSB (11747773_x_at) / Fold change /veh SPTSSB (11747773_x_at) / RFU PRSS12 (11739890_at) / Fold change /veh PRSS12 (11739890_at) / RFU BIN1 (11741810_x_at) / Fold change /veh BIN1 (11741810_x_at) / RFU WNT11 (11732464_a_at) / Fold change /veh WNT11 (11732464_a_at) / RFU C10orf10 (11716521_a_at) / Fold change /veh C10orf10 (11716521_a_at) / RFU C5orf56 (11738089_at) / Fold change /veh C5orf56 (11738089_at) / RFU CYB561 (11721691_x_at) / Fold change /veh CYB561 (11721691_x_at) / RFU ANKRD19P (11752326_a_at) / Fold change /veh ANKRD19P (11752326_a_at) / RFU OR2T12 /// OR2T33 /// OR2T8 (11738714_s_at) / Fold change /veh OR2T12 /// OR2T33 /// OR2T8 (11738714_s_at) / RFU VCAN (11748164_a_at) / Fold change /veh VCAN (11748164_a_at) / RFU JSRP1 (11732532_at) / Fold change /veh JSRP1 (11732532_at) / RFU KRTAP10-11 (11738290_x_at) / Fold change /veh KRTAP10-11 (11738290_x_at) / RFU MYO3A (11730013_a_at) / Fold change /veh MYO3A (11730013_a_at) / RFU EBF3 (11725865_a_at) / Fold change /veh EBF3 (11725865_a_at) / RFU CAMK2N1 (11719241_x_at) / Fold change /veh CAMK2N1 (11719241_x_at) / RFU C5orf56 (11738088_a_at) / Fold change /veh C5orf56 (11738088_a_at) / RFU OLFML3 (11715873_a_at) / Fold change /veh OLFML3 (11715873_a_at) / RFU LOC100653217 /// NTM (11731650_a_at) / Fold change /veh LOC100653217 /// NTM (11731650_a_at) / RFU MAPK11 (11762145_a_at) / Fold change /veh MAPK11 (11762145_a_at) / RFU FIZ1 (11724087_x_at) / Fold change /veh FIZ1 (11724087_x_at) / RFU OASL (11726364_x_at) / Fold change /veh OASL (11726364_x_at) / RFU SOX15 (11748057_x_at) / Fold change /veh SOX15 (11748057_x_at) / RFU CD79A (11719716_a_at) / Fold change /veh CD79A (11719716_a_at) / RFU HIST1H1D (11736915_at) / Fold change /veh HIST1H1D (11736915_at) / RFU CASKIN2 (11723855_a_at) / Fold change /veh CASKIN2 (11723855_a_at) / RFU LOC730098 (11760151_x_at) / Fold change /veh LOC730098 (11760151_x_at) / RFU OR4N2 (11742367_at) / Fold change /veh OR4N2 (11742367_at) / RFU PRRT2 (11749266_a_at) / Fold change /veh PRRT2 (11749266_a_at) / RFU SNX32 (11753110_a_at) / Fold change /veh SNX32 (11753110_a_at) / RFU CDHR5 (11726645_a_at) / Fold change /veh CDHR5 (11726645_a_at) / RFU RCAN1 (11760418_a_at) / Fold change /veh RCAN1 (11760418_a_at) / RFU FAM167A (11723789_a_at) / Fold change /veh FAM167A (11723789_a_at) / RFU FAM26E (11764081_at) / Fold change /veh FAM26E (11764081_at) / RFU ISYNA1 (11749810_s_at) / Fold change /veh ISYNA1 (11749810_s_at) / RFU ACY1 (11761880_at) / Fold change /veh ACY1 (11761880_at) / RFU 11764098_at / Fold change /veh 11764098_at / RFU SAMD14 (11745864_x_at) / Fold change /veh SAMD14 (11745864_x_at) / RFU NPB (11741838_a_at) / Fold change /veh NPB (11741838_a_at) / RFU TMPRSS6 (11731388_a_at) / Fold change /veh TMPRSS6 (11731388_a_at) / RFU KRTAP10-2 (11738614_at) / Fold change /veh KRTAP10-2 (11738614_at) / RFU ARHGAP8 /// PRR5-ARHGAP8 (11727945_x_at) / Fold change /veh ARHGAP8 /// PRR5-ARHGAP8 (11727945_x_at) / RFU KRTAP5-7 /// NADSYN1 (11734609_at) / Fold change /veh KRTAP5-7 /// NADSYN1 (11734609_at) / RFU RASL12 (11751679_a_at) / Fold change /veh RASL12 (11751679_a_at) / RFU CDKN2B (11736163_a_at) / Fold change /veh CDKN2B (11736163_a_at) / RFU PRF1 (11729649_at) / Fold change /veh PRF1 (11729649_at) / RFU, ZNF638 /// ZNF638-IT1 / Fold change vs veh, ZNF638 /// ZNF638-IT1 / RFU, PANK3 / Fold change vs veh, PANK3 / RFU, SH3YL1 / Fold change vs veh, SH3YL1 / RFU, ZEB2 / Fold change vs veh, ZEB2 / RFU, NRIP1 / Fold change vs veh, NRIP1 / RFU, PTTG1IP / Fold change vs veh, PTTG1IP / RFU, CAPN2 / Fold change vs veh, CAPN2 / RFU, MED14 / Fold change vs veh, MED14 / RFU, SNORA58 / Fold change vs veh, SNORA58 / RFU, C1orf63 / Fold change vs veh, C1orf63 / RFU, LRRFIP1 / Fold change vs veh, LRRFIP1 / RFU, NDUFAF7 / Fold change vs veh, NDUFAF7 / RFU, SLC12A2 / Fold change vs veh, SLC12A2 / RFU, IBTK / Fold change vs veh, IBTK / RFU, ESF1 / Fold change vs veh, ESF1 / Fold change vs veh, TMEM50B / RFU, TAOK1 / Fold change vs veh, TAOK1 / RFU, ACBD3 / Fold change vs veh, ACBD3 / RFU, TMA16 / Fold change vs veh, TMA16 / RFU, RWDD3 / Fold change vs veh, RWDD3 / RFU, BCAT1 / Fold change vs veh, BCAT1 / RFU, EDEM3 / Fold change vs veh, EDEM3 / RFU, TMEM33 / Fold change vs veh, TMEM33 / RFU, WDR75 / Fold change vs veh, WDR75 / RFU, AHCTF1 / Fold change vs veh, AHCTF1 / RFU, TFRC / Fold change vs veh, TFRC / RFU, ZDHHC17 / Fold change vs veh, ZDHHC17 / RFU, NOM1 / Fold change vs veh, NOM1 / RFU, ARL8B / Fold change vs veh, ARL8B / RFU, ZBTB11 / Fold change vs veh, ZBTB11 / RFU, TAMM41 / Fold change vs veh, TAMM41 / RFU, KIAA1704 /// LOC100996395 / Fold change vs veh, KIAA1704 /// LOC100996395 / RFU, ING1 / Fold change vs veh, ING1 / RFU, TRMT61B / Fold change vs veh, TRMT61B / RFU, FUBP3 / Fold change vs veh, FUBP3 / RFU, TP53 / Fold change vs veh, TP53 / RFU, TNKS2 / Fold change vs veh, TNKS2 / RFU, ZFP14 / Fold change vs veh, ZFP14 / RFU, ACTR2 / Fold change vs veh, ACTR2 / RFU, PPP3R1 / Fold change vs veh, PPP3R1 / RFU, PIK3R1 / Fold change vs veh, PIK3R1 / RFU, HNRNPA1 / Fold change vs veh, HNRNPA1 / RFU, RNF170 / Fold change vs veh, RNF170 / RFU, ZNF28 / Fold change vs veh, ZNF28 / RFU, RNGTT / Fold change vs veh, RNGTT / RFU, OGT / Fold change vs veh, OGT / RFU, BRD1 / Fold change vs veh, BRD1 / RFU, MARS / Fold change vs veh, MARS / RFU, ZNF655 / Fold change vs veh, ZNF655 / RFU, FAHD1 / Fold change vs veh, FAHD1 / RFU, BDP1 / Fold change vs veh, BDP1 / RFU, LRRCC1 / Fold change vs veh, LRRCC1 / RFU, ARID1A / Fold change vs veh, ARID1A / RFU, ZNF146 / Fold change vs veh, ZNF146 / RFU, ZNF330 / Fold change vs veh, ZNF330 / RFU, GPN3 / Fold change vs veh, GPN3 / RFU, C9orf123 / Fold change vs veh, C9orf123 / RFU, N4BP2L2 / Fold change vs veh, N4BP2L2 / RFU, ARFIP1 / Fold change vs veh, ARFIP1 / RFU, FAM179B / Fold change vs veh, FAM179B / RFU, BCL10 / Fold change vs veh, BCL10 / RFU, UHRF1BP1L / Fold change vs veh, UHRF1BP1L / RFU, BET1 / Fold change vs veh, BET1 / RFU, CNOT2 / Fold change vs veh, CNOT2 / RFU, ZNF268 / Fold change vs veh, ZNF268 / Fold change vs veh, ZNF507 / RFU, DGCR2 / Fold change vs veh, DGCR2 / RFU, WDSUB1 / Fold change vs veh, WDSUB1 / Fold change vs veh, HSP90B1 /// MIR3652 / RFU, ADSS / Fold change vs veh, ADSS / RFU, GK / Fold change vs veh, GK / RFU, ZNF148 / Fold change vs veh, ZNF148 / RFU, TAF9 / Fold change vs veh, TAF9 / RFU, SLC1A5 / Fold change vs veh, SLC1A5 / RFU, SLMO2 / Fold change vs veh, SLMO2 / RFU, ABCC4 / Fold change vs veh, ABCC4 / RFU, LOC101060439 /// RAP1B / Fold change vs veh, LOC101060439 /// RAP1B / RFU, RFX7 / Fold change vs veh, RFX7 / RFU, GTPBP10 / Fold change vs veh, GTPBP10 / RFU, CNEP1R1 / Fold change vs veh, CNEP1R1 / RFU, BIVM-ERCC5 /// ERCC5 / Fold change vs veh, BIVM-ERCC5 /// ERCC5 / RFU, ILF3 / Fold change vs veh, ILF3 / RFU 11762660_at / Fold change /veh 11762660_at / RFU VCAN (11757783_s_at) / Fold change /veh VCAN (11757783_s_at) / RFU DDX43 (11728927_at) / Fold change /veh DDX43 (11728927_at) / RFU KRT8 (11758188_x_at) / Fold change /veh KRT8 (11758188_x_at) / RFU NKD1 (11759106_at) / Fold change /veh NKD1 (11759106_at) / RFU SRD5A1 (11742802_a_at) / Fold change /veh SRD5A1 (11742802_a_at) / RFU TPSAB1 /// TPSB2 (11721975_s_at) / Fold change /veh TPSAB1 /// TPSB2 (11721975_s_at) / RFU GSTM3 (11746129_a_at) / Fold change /veh GSTM3 (11746129_a_at) / RFU IL23R (11737362_x_at) / Fold change /veh IL23R (11737362_x_at) / RFU TMEM51 (11727254_a_at) / Fold change /veh TMEM51 (11727254_a_at) / RFU PIWIL2 (11732686_x_at) / Fold change /veh PIWIL2 (11732686_x_at) / RFU ORM1 (11744905_x_at) / Fold change /veh ORM1 (11744905_x_at) / RFU CCDC152 (11743942_at) / Fold change /veh CCDC152 (11743942_at) / RFU ECM1 (11717891_a_at) / Fold change /veh ECM1 (11717891_a_at) / RFU IL23R (11748794_a_at) / Fold change /veh IL23R (11748794_a_at) / RFU TNFAIP8L3 (11732012_x_at) / Fold change /veh TNFAIP8L3 (11732012_x_at) / RFU MBOAT4 (11741988_at) / Fold change /veh MBOAT4 (11741988_at) / RFU 11764193_at / Fold change /veh 11764193_at / RFU TMEM53 (11763286_at) / Fold change /veh TMEM53 (11763286_at) / RFU MAGEB2 (11727129_at) / Fold change /veh MAGEB2 (11727129_at) / RFU TMEM200A (11744735_a_at) / Fold change /veh TMEM200A (11744735_a_at) / RFU CCDC152 (11751479_a_at) / Fold change /veh CCDC152 (11751479_a_at) / RFU FAM211A (11726209_a_at) / Fold change /veh FAM211A (11726209_a_at) / RFU RGS16 (11746705_a_at) / Fold change /veh RGS16 (11746705_a_at) / RFU VCAN (11755009_s_at) / Fold change /veh VCAN (11755009_s_at) / RFU RHOB (11743442_s_at) / Fold change /veh RHOB (11743442_s_at) / RFU RGS16 (11720943_a_at) / Fold change /veh RGS16 (11720943_a_at) / RFU RGS16 (11720944_at) / Fold change /veh RGS16 (11720944_at) / RFU, VPS4B / Fold change vs veh, VPS4B / RFU, CREB1 / Fold change vs veh, CREB1 / RFU, DNAJC13 / Fold change vs veh, DNAJC13 / RFU, GNAQ / Fold change vs veh, GNAQ / RFU, CDK5R1 / Fold change vs veh, CDK5R1 / RFU, ZRANB3 / Fold change vs veh, ZRANB3 / RFU, CUL4A / Fold change vs veh, CUL4A / RFU, CCNY / Fold change vs veh, CCNY / RFU, UFL1 / Fold change vs veh, UFL1 / RFU, COG3 / Fold change vs veh, COG3 / RFU, DIAPH2 / Fold change vs veh, DIAPH2 / RFU, SKA2 / Fold change vs veh, SKA2 / RFU, AFF3 / Fold change vs veh, AFF3 / RFU, LMF1 / Fold change vs veh, LMF1 / RFU, IPO11 / Fold change vs veh, IPO11 / RFU, DFFB / Fold change vs veh, DFFB / RFU, FOXP1 / Fold change vs veh, FOXP1 / RFU, CARD8 / Fold change vs veh, CARD8 / RFU, STRN3 / Fold change vs veh, STRN3 / RFU, ADK / Fold change vs veh, ADK / RFU, RASSF2 / Fold change vs veh, RASSF2 / RFU, WIPF1 / Fold change vs veh, WIPF1 / RFU, LARP1B / Fold change vs veh, LARP1B / RFU, RASA1 / Fold change vs veh, RASA1 / RFU, RB1 / Fold change vs veh, RB1 / RFU, PPFIA1 / Fold change vs veh, PPFIA1 / RFU, MAT2A / Fold change vs veh, MAT2A / RFU, CCT5 / Fold change vs veh, CCT5 / RFU, WDR92 / Fold change vs veh, WDR92 / RFU, CUX1 / Fold change vs veh, CUX1 / RFU, TTC7A / Fold change vs veh, TTC7A / RFU, TMEM135 / Fold change vs veh, TMEM135 / RFU, DEPTOR / Fold change vs veh, DEPTOR / RFU, CPM / Fold change vs veh, CPM / RFU, DNAJB6 / Fold change vs veh, DNAJB6 / RFU, CACNA2D3 / Fold change vs veh, CACNA2D3 / RFU, DTX4 / Fold change vs veh, DTX4 / RFU, TFCP2 / Fold change vs veh, TFCP2 / RFU, GMCL1 /// GMCL1P1 / Fold change vs veh, GMCL1 /// GMCL1P1 / RFU, AEBP2 / Fold change vs veh, AEBP2 / RFU, SNHG1 /// SNORD22 /// SNORD25 /// SNORD26 /// SNORD27 /// SNORD28 /// SNORD29 /// SNORD31 / Fold change vs veh, SNHG1 /// SNORD22 /// SNORD25 /// SNORD26 /// SNORD27 /// SNORD28 /// SNORD29 /// SNORD31 / Fold change (Aza/veh), C12orf56 (ProbeSet 11735607_a_at) / Fold change (ACY-1035/veh), C12orf56 (ProbeSet 11735607_a_at) / Fold change (Aza/veh), FGFR1OP (ProbeSet 11751329_s_at) / Fold change (ACY-1035/veh), FGFR1OP (ProbeSet 11751329_s_at) / Fold change (Aza/veh), VPS36 (ProbeSet 11739960_a_at) / Fold change (ACY-1035/veh), VPS36 (ProbeSet 11739960_a_at) / RFU SYPL1 (11715823_x_at) / Fold change /veh SYPL1 (11715823_x_at) / RFU IGFBP7 (11715501_s_at) / Fold change /veh IGFBP7 (11715501_s_at) / RFU REEP3 (11722064_at) / Fold change /veh REEP3 (11722064_at) / RFU IGLL1 (11728026_x_at) / Fold change /veh IGLL1 (11728026_x_at): dose or concentration left out as unconfirmed
Conditions: ProbeSet 11763166_a_at; LIST B

Structure (SMILES): Nc1ncn([C@@H]2O[C@H](CO)[C@@H](O)[C@H]2O)c(=O)n1 [azacitidine]
- Fold change vs veh, MARS: 0.85
